From patent EP4818191A1, “PEPTIDE AND CONJUGATE CONTAINING SAID PEPTIDE” (PeptiDream Inc., priority 2023, dated 2025)

Biological target: T1, human CA9 (Homo sapiens, UniProt Q16790)
T1 construct: purchased SinoBiological
Assay: Intermolecular interaction against human CA9 by surface plasmon resonance (SPR)
Type: binding
Conditions: Human CA9-Fc captured on Protein A sensor chip, Single Cycle Kinetics, KD values only in Tables 7, 8 (images)
Method: The intermolecular interactions of the peptides against human CA9 protein were examined by surface plasmon resonance (SPR) for the various peptides or conjugates synthesized in Examples 1 and 2, according to the methods described below. Specific test methods are described below.
Protein A sensor chip (Cytiva) was inserted into BiacoreT200 (Cytiva) and primed with running buffer: 1× HBS-P+ (Cytiva), 1.0 % DMSO (Fujifilm Wako Pure Chemical Corporation), and 50 µM zinc acetate dihydrate (Hampton research), and equilibrated at a flow rate of 30 µL/min. 50 nM Human CA9-Fc (SinoBiological) diluted with running buffer was reacted at a flow rate of 5 µL/min for 60 seconds and captured into a flow cell.
A solution containing each peptide or conjugate synthesized in Example 1 or 2 and prepared at 1 mM in DMSO solution was diluted with running buffer to a final concentration of 100 nM. Then, the peptide or conjugate solutions at 25 nM and 5 nM were further prepared. Depending on the affinity of the peptide or conjugate, the solution was diluted with running buffer to a final concentration of 40 nM. […]
Using the above samples, the kinetics of each peptide or conjugate against human CA9 was obtained by SPR measurement. […] The binding of each peptide or conjugate to human CA9 was evaluated by performing least-squares curve fitting on the obtained sensorgram to calculate the KD value.

## C1Ac-da-Tbg-3Py6CON-Hgl-Meda-Ahp-PeG-S-3Py6NH2-HseMe-dk-Y-MeC [SEQ ID No. 45]
  activity of binding to human CA9 (CA9 binding ability): possesses CA9 binding ability
